Data: publication PMC4330465 (Journal of Computer-Aided Molecular Design, 2014)
Structures can show the parent of a compound that is named as a salt.

target: T1, Recombinant Homo sapiens AChE (Homo sapiens, UniProt P22303); assay: not given; conditions: test set Set3 (Table S15); cited from earlier work
T1 construct: made in house
T1 sequence (P22303 32-614): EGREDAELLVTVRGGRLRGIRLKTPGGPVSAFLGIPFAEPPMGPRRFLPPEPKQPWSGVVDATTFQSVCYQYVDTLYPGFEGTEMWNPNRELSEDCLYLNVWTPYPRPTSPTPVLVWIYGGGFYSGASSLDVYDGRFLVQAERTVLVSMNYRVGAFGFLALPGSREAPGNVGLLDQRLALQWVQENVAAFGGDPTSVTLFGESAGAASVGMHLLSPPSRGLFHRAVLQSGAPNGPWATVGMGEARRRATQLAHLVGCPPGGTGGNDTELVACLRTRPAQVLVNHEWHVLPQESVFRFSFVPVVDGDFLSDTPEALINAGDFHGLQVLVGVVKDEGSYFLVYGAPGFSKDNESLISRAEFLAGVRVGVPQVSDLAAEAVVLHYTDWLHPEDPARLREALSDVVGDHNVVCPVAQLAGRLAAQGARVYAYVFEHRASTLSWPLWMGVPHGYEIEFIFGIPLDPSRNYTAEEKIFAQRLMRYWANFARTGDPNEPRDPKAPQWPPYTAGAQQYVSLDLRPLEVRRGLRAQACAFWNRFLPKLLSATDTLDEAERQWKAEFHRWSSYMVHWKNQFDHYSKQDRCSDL

Structure (SMILES) | IC50 [µM]
CCN(CC)CCNS(=O)(=O)c1cccc(OC)c1 [compound 60] | 10

target: T1, Recombinant Homo sapiens AChE; assay: biochemical; format: biochemical; conditions: test sets Set1 and Set2 (Table S15), synthesized and biologically evaluated here
Protocol: The training set of 18 compounds was experimentally evaluated for their ability to inhibit the enzymatic activity of AChE (Table 1 and Online Resource 1 for experimental details).
Reco mbinant Homo sapiens AChE was expressed according to previously described methods [ 6,7]. The enzymatic activit y wa s measured usi ng t he Ell ma n assa y [ 8] adapted to a 96-well for mat. The final assay volume was 200 µ L a nd all measurements were performed in 0.2 mM 5,5’-D ithiobis(2-nitrobenzoic acid) and 1 mM acethylthioc holine iodide in 0.1 M phosphate buffer pH 8.0. All measurements were perfor med in triplicates and the data was fitted to a (log)i nhibit or vs. response four parameters equation using GraphPad Prism (5.0). T he obtained IC50-values were recalculated to pIC50 according to pIC50=-log(IC50) in molar (M) concentration.

Structure (SMILES) | IC50 [µM]
Cc1cc(C)c(OCC(=O)Nc2ccc(CN3CCCCC3)cc2)c(Cl)c1 [compound 38] | 1.3
Cc1ccc(C(=O)NCC[n+]2ccccc2)cc1[N+](=O)[O-] [compound 28] | 10
Cc1ccc(C(=O)NCCCN(C)C)cc1[N+](=O)[O-] [compound 29] | 19
O=C(COc1ccc(Cl)cc1)Nc1ccc(CN2CCCCC2)cc1 [compound 37] | 0.6
O=C(COc1ccccc1)Nc1ccc(CN2CCCCC2)cc1 [compound 39] | 1.3
O=C(NCC[n+]1ccsc1)c1cc2cc([N+](=O)[O-])ccc2s1 [compound 31] | 2.6
Cc1ccc(C(=O)NCCC[n+]2ccccc2)cc1[N+](=O)[O-] [compound 27] | 4.9
O=[N+]([O-])c1ccccc1S(=O)(=O)NCC[n+]1ccsc1 [compound 30] | 12
CCN(CC)Cc1ccc(NC(=O)COc2cc(C)ccc2C)cc1 [compound 41] | 8.1
O=C(CCc1ccc(Cl)cc1Cl)Nc1ccc(CN2CCCCC2)cc1 [compound 42] | 0.7
O=C(COc1ccccc1Cl)Nc1ccc(CN2CCCCC2)cc1 [compound 40] | 0.6

same assay, conditions: training set; triplicates; pH 8.0

Structure (SMILES) | IC50 [µM]
O=S(=O)(Cc1ccc(C(F)(F)F)cc1)NCCCN1CCNCC1 [compound 17] | 4200
Cc1ccc(S(=O)(=O)NCCN(C)C)cc1[N+](=O)[O-] [compound 4] | 69.5
COc1ccc(N2Cc3ccccc3C2=O)cc1S(=O)(=O)NCCCN(C)C [compound 8] | 12
CCN(CC)CCCNC(=O)c1ccc(C)c([N+](=O)[O-])c1 [compound 6] | 12.8
O=C(Cc1ccc(C(F)(F)F)cc1)NCCN1CCCCC1 [compound 10, N-[2-(Piperidin-1-yl)-ethyl] -2-(4-trifluoromethyl-phenyl) -acetamide] | 323
O=S(=O)(Cc1ccc(C(F)(F)F)cc1)NCCC[n+]1ccccc1 [compound 15] | 22.2
O=C(NCCN1CCNCC1)c1sc2ccccc2c1Cl [compound 16] | 109
CCN(CC)CCNS(=O)(=O)Cc1ccc(Cl)cc1 [compound 1] | 13
CN(C)CCCNC(=O)c1sc2ccccc2c1Cl [compound 9, 3-Chloro-benzo[b]thiophene-2-N-(3-dimethylamino-propyl)-carboxamide hydrochlor ide] | 67.7
Cc1ccc(S(=O)(=O)NCCCN2CCCCC2)cc1[N+](=O)[O-] [compound 5] | 101
O=C(NCCCN1CCNCC1)c1ccc(-c2ccc(Cl)cc2)o1 [compound 18] | 136
O=C(Cc1ccc(Cl)cc1)NCC[n+]1ccccc1 [compound 13, 1-(2-[2-(4 -Chloro-phenyl)-acetylamino]-ethyl)-pyridinium bromide] | 25
COc1ccc(N2Cc3ccccc3C2=O)cc1S(=O)(=O)NCCN1CCOCC1 [compound 7] | 4250
O=S(=O)(Cc1ccc(Cl)cc1)NCCCN1CCCCC1 [compound 2] | 445
O=C(Cc1ccc(Cl)cc1)NCCCN1CCOCC1 [compound 3] | > 1000
O=C(NCCN1CCOCC1)c1ccc(-c2ccc(Cl)cc2)o1 [compound 11, 5-(4-Chlorophenyl)-N-(2-morpholinoethyl)furan-2-carboxamide] | 2430
O=C(NCCC[n+]1ccccc1)c1sc2ccccc2c1Cl [compound 14, 1-(3-[(3-Chloro-benzo[b]thiophen-2-carbonyl)-amino] -propyl)-pyridinium chloride] | 6.6
CCN(CC)CCCNC(=O)c1ccc(-c2ccc(Cl)cc2)o1 [compound 12, 5-(4-Chloro-phenyl)-furan-2-N-[3-(diethylamino)-propyl]-carboxamide hydrochloride] | 78
